Results taken from ChEMBL document CHEMBL3886864, “Heterocyclic resorcinol derivatives, preparation of same and cosmetic uses thereof” (2016).

What follows are molecules tested against T1, Polyphenol oxidase 1 (Agaricus bisporus, UniProt Q00024) (assay: Inhibition Assay: Reader: Synergy HT program: tyrosinase 280-490 kinetics: kinetics over 45 minutes, reading at t=10 minutes, Tests in transparent 96-well plates, Phosphate buffer (pH 6.8), Enzyme: mushroom tyrosinase (T-3824, Sigma), Substrate: L-tyrosine (T-3754, Sigma), Positive control: Kojic acid (KA) (60890, Fluka) (reference inhibitor). Reference Molecules for the Test: Kojic acid: …).
T1 sequence (Q00024 whole entry): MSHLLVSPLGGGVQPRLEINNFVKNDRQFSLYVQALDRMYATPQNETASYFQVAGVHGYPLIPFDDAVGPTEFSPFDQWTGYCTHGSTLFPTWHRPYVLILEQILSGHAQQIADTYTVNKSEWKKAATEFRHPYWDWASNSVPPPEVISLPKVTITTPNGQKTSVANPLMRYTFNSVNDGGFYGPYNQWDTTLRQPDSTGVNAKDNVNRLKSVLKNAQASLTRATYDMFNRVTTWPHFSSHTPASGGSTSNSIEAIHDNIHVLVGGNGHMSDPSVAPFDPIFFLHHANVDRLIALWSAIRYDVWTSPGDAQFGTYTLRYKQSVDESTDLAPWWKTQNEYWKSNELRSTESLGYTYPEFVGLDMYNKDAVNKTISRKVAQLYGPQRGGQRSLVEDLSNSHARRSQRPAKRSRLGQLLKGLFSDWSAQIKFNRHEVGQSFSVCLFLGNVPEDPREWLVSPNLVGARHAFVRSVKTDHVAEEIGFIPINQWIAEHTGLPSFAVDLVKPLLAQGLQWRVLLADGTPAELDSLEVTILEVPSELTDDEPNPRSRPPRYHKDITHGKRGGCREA

| SMILES | IC50 |
| --- | --- |
| CC(c1cccnc1)c1ccc(O)cc1O (stereo unspecified) | 200 nM |
| CC(c1ccccn1)c1ccc(O)cc1O (stereo unspecified) | 400 nM |
| CCCCc1ccc(O)cc1O [RUCINOL] | 1000 nM |

Further lines, results first:

| IC50 | SMILES |
| --- | --- |
| 90 nM | CC(c1cccs1)c1ccc(O)cc1O (stereo unspecified) |
| 80 nM | CC(c1ccsc1)c1ccc(O)cc1O (stereo unspecified) |
| 1500 nM | CC(c1nccs1)c1ccc(O)cc1O (stereo unspecified) |
